Read-outs that look alike come from different tables or passages of the source.
Columns and labels:
healthy human eyes = settings: dose of 5 μg, cited from earlier work
eye of white rabbits = experiment: Incidence of conjunctival hyperemia after single ocular administration; settings: 50 μg eye drop, once to one eye, two hours after the administration
Experimental: The presence of conjunctival hyperemia was examined at two hours after the administration and the ratio of cases showing conjunctival hyperemia was evaluated by percent in each group.

monkey eyes [1] = experiment: Effects on IOP in monkey eyes (applanation pneumatonometer); assay type: in vivo, cynomolgus monkeys; settings: 15 μg/eye
Experimental: (§1) Nine male cynomolgus monkeys (body weights of animals ranged between 3.2 and 5.4 kg) without abnormalities in the anterior segment of the eye were used.
(§2) The left eye received an equal volume of the vehicle.
Intraocular pressure (IOP) measurements were conducted by means of an applanation pneumatonometer (Model 30 Classic™, Mentor O & O, Inc., USA) immediately before the administration (0-hour), and at 2, 4, 8, 12, 24, 28, and 32 hours after the administration.

eye of Dutch rabbits = experiment: 13-week repeated ocular administration, irritable response in cornea, conjunctiva or iris; assay type: in vivo
Experimental: The administration was performed 4 times a day with 2-hour intervals for 13 weeks. The cornea, conjunctiva and iris were observed about occurrence of irritable response before, and 4, 8, and 13 weeks after the initiation of the administration. The observation was performed within the time from 0.5 hour to 2 hours after the last administration of the day. The cornea was observed about a presence of opacity and its area in the cornea. The conjunctiva was observed about occurrence of hyperemia, redness and swelling. The iris was observed about occurrence of hyperemia, congestion, swelling and hemorrhage. The ratio of cases showing irritable response in the cornea, conjunctiva or iris was evaluated by percent in the group.

monkey eyes [2] = experiment: Eye irritancy scoring in monkeys (criteria based on Draize test); assay type: in vivo, cynomolgus monkeys; set-up: key to Eye irritancy (Score) Conjunctivae Chemosis: 0: No swelling; 1: Any swelling above normal (includes nictitating membrane); 2: Obvious swelling with partial eversion of the lids; 3: Swelling with lids about half closed; 4: Swelling with lids about half closed to completely closed; settings: 15 μg/eye
Description: as §1, §2
Eye irritancy was scored according to the criteria presented in Table 4 at the same time points as IOP measurements. These criteria are based on those of Draize test.

monkey eyes [3] = settings: 50 μg per eye; cited from earlier work
monkey eyes [4] = settings: dose of 3 μg; cited from earlier work
[5] = system: eye of healthy volunteers; experiment: Intraocular pressure lowering effect in healthy volunteers (applanation tonometer); assay type: in vivo, human; settings: for Intraocular pressure lowering effect (difference in IOP between test eye and control eye): 12 μg/eye; for lowered the IOP by, as compared with the control eye: 12 μg
Experimental: The vehicle solution was ocularly administered to the contralateral eye (control eye). Intraocular pressure (IOP) was measured by means of an applanation tonometer before, and 4, 6, and 12 hours after the administration. The IOP lowering effect of the test compound was evaluated based on difference in IOP between test eye and the control eye at each time point of IOP measurement.

## CC(C)OC(=O)CCC/C=C\C[C@@H]1[C@@H](CCC(=O)CCc2ccccc2)[C@H](O)C[C@@H]1O [13,14-dihydro-15-keto-17-phenyl-18,19,20-trinor-PGF2α isopropyl ester]
Healthy human eyes; healthy human eyes
  intraocular pressure reducing effects: showed intraocular pressure reducing effects
Healthy human eyes; in the human
  side effect such as conjunctival hyperemia, ocular irritation and foreign body sensation: no side effect
Eye of white rabbits
  Incidence Rate of Conjunctival Hyperemia: 33%
Monkey eyes [1]; 0 hr (immediately before administration), right eye, Mean ± SE
  IOP: 19.7 ± 0.6 mmHg
Monkey eyes [1]; topical
  IOP reduction: significant IOP reduction
Eye of Dutch rabbits; 30 μg/eye each 4 times a day for 13 weeks
  effect on the cornea, conjunctiva and iris: no effect
Eye of Dutch rabbits; 4 weeks after initiation, 30 μg/eye 4 times/day
  Incidence rate of ocular irritation: 0%
Eye of Dutch rabbits; 8 weeks after initiation, 30 μg/eye 4 times/day
  Incidence rate of ocular irritation: 0%
Eye of Dutch rabbits; 13 weeks after initiation, 30 μg/eye 4 times/day
  Incidence rate of ocular irritation: 0%
Eye of Dutch rabbits; Pre (before initiation of administration)
  Incidence rate of ocular irritation: 0%
Monkey eyes [2]; 2 hr after administration
  Eye irritancy (Score) Conjunctivae Chemosis: 0
Monkey eyes [2]; 4 hr after administration
  Eye irritancy (Score) Conjunctivae Chemosis: 0
Monkey eyes [2]; 8 hr after administration
  Eye irritancy (Score) Conjunctivae Chemosis: 0
Monkey eyes [2]; 12 hr after administration
  Eye irritancy (Score) Conjunctivae Chemosis: 0
Monkey eyes [2]; 24 hr after administration
  Eye irritancy (Score) Conjunctivae Chemosis: 0
Monkey eyes [2]; 28 hr after administration
  Eye irritancy (Score) Conjunctivae Chemosis: 0
Monkey eyes [2]; 32 hr after administration
  Eye irritancy (Score) Conjunctivae Chemosis: 0
Monkey eyes [2]; Before administration
  Eye irritancy (Score) Conjunctivae Chemosis: 0
Monkey eyes [2]; after topical administration
  signs or symptoms of ocular irritation: no signs or symptoms
Monkey eyes [3]
  intraocular pressure reducing effects: showed intraocular pressure reducing effects
Monkey eyes [4]
  intraocular pressure reducing effects: showed intraocular pressure reducing effects
[5]; 4 hours after administration
  Intraocular pressure lowering effect (difference in IOP between test eye and control eye): −1.0 mmHg
[5]; 4 hours after the administration
  lowered the IOP by, as compared with the control eye: 1.0 mmHg
[5]; 6 hours after administration
  Intraocular pressure lowering effect (difference in IOP between test eye and control eye): −0.8 mmHg
[5]; 6 hours after the administration
  lowered the IOP by, as compared with the control eye: 0.8 mmHg
[5]; 12 hours after administration
  Intraocular pressure lowering effect (difference in IOP between test eye and control eye): −1.1 mmHg
[5]; 12 hours after the administration
  lowered the IOP by, as compared with the control eye: 1.1 mmHg

Reference: US20040254247A1, “Method and composition for treatnment of ocular hypertension and glaucoma” (priority 2001, published 2004)
